Source: PMC8580996, “2-Oxoglutarate derivatives can selectively enhance or inhibit the activity of human oxygenases” (Nature Communications, 2021)
Values joined by “and” are separate entries in the source; they are usually repeats but may differ in a detail not shown here. Identical values can stand only once.

Assays:
Assay type in all cases: biochemical
FIH [1] = target: T1, FIH (Homo sapiens, UniProt Q9NWT6); test: Competition assay in a single reaction vessel, FIH-catalyzed hydroxylation (SPE-MS)
Protocol: (§1) Mean of three independent runs (n = 3; mean ± SD). […] Cosubstrates: a 20 μM 2OG; b 20 μM 2OG; c 20 μM 1; d 20 μM 12; e 20 μM 12 and 100 μM 2OG; f 100 μM 14. Source data are provided as a Source Data file.
(§2) Mean of three independent runs (n = 3; mean ± SD). […] Source data are provided as a Source Data file.
(§3) Peptide turnover was monitored by SPE-MS using the same instrument configuration (with the exception that the peptides were eluted from the SPE cartridge with 0.1%v/v aqueous formic acid in 80/20 v/v acetonitrile/water) as described above.
(§4) FIH and AspH-catalyzed peptide hydroxylations were analyzed simultaneously using SPE-MS as described in the
(§5) Methods section; competition experiments were performed in the same reaction vessel using equimolar 2OG
(§6) oxygenase and substrate concentrations. […]
(§7) Source data are provided as a Source Data file.
(§8) FIH and AspH-catalyzed peptide hydroxylations were analyzed simultaneously using SPE-
(§9) MS as described in the Methods section; competition experiments were performed in the same reaction vessel
(§10) using equimolar 2OG oxygenase and substrate concentrations. […]
(§11) 2OG, 100 μM 14. Source data are provided as a Source Data file.

FIH [2] = target: T1, FIH; test: 1H NMR assay of FIH-catalyzed oxidative decarboxylation of cosubstrate, with SPE-MS of final mixture; settings: 5 μM FIH, 150 μM CA1-20, 150 μM cosubstrate
Protocol: Supplementary Figure 2. […] FIH- […]
catalyzed oxidative decarboxylation of 2OG was monitored using a Bruker AVIII 700 NMR machine equipped with a 5 mm 1H(13C/15N) inverse cryoprobe; spectra were analyzed using the Bruker TopSpin 3.6.1 software.
50 μM ammonium iron(II) sulfate hexahydrate (FAS, (NH4)2Fe(SO4)2·6H2O) in 50 mM aqueous Tris-d11 containing 10% v/v D2O (pH 7.5, 25° C). The ratio of the CA 1-20 peptide and the hydroxylated CA 1-20(Ox) peptide, which is the product of the F IH-catalyzed hydroxylation reaction, was determined using SPE-MS after NMR […]
(a) Close-up (3.0-2.2 ppm) of the 1H NMR spectrum of commercial 2OG in 50 mM aqueous Tris-d11 containing 10%v/v D2O (pH 7.5, 25° C); (b) Close-up (3.0-2.2 ppm) of the 1H NMR spectrum of commercial succinate in 50 […]
FIH-catalyzed oxidative decarboxylation of 3-methyl-2OG (1) was monitored using a Bruker AVIII 700 NMR machine equipped with a 5 mm 1H(13C/15N) inverse cryoprobe; spectra were analyzed using the […]
Bruker TopSpin 3.6.1 software. […]
in 50 mM aqueous Tris -d11 containing 10% v/v D2O (pH 7.5, 25° C). The ratio of the CA 1-20 peptide and the hydroxylated CA 1-20(Ox) peptide, which is the product of the FIH -catalyzed hydroxylation reaction, was […]
(a) Close -up (3.4 -0.9 ppm) of the 1H NMR spectrum of synthetic 1 in 50 mM aqueous Tris-d11 containing 10% v/v D2O (pH 7.5, 2 5° C); ( b) Close -up (3.4 -0.9 ppm) of the 1H NMR spectrum of commercial 2 -methylsuccinate ( 36) […]
FIH-catalyzed oxidative decarboxylation of 4-methyl-2OG (12) was monitored using a Bruker AVIII 700 NMR machine equipped with a 5 mm 1H(13C/15N) inverse cryoprobe; spectra were analyzed using the Bruker TopSpin 3.6.1 software.
(NH4)2Fe(SO4)2·6H2O) in 50 mM aqueous Tris-d11 containing 10% v/v D2O (pH 7.5, 25° C). The ratio of the CA 1-20 peptide and the hydroxylated CA 1-20(Ox) peptide, which is the product of the FI H-catalyzed hydroxylation […]
(a) Close -up (3.3 -0.9 ppm) of the 1H NMR spectrum of synthetic 12 in 50 mM aqueous Tris-d11 containing 10% v/v D2O (pH 7.5, 25° C); ( b) Close -up (3.4 -0.9 ppm) of the 1H NMR spectrum of commercial 2 -methylsuccinate ( 36)

AspH = target: T2, AspH (Homo sapiens, UniProt Q12797); test: Competition assay in a single reaction vessel, AspH-catalyzed hydroxylation (SPE-MS); settings: for substrate hydroxylation (% conversion): AspH
T2 construct: the tetratricopeptide repeat domain (His6-AspH315-758), was produced and purified as previously reported; made in house
T2 sequence (Q12797 315-758): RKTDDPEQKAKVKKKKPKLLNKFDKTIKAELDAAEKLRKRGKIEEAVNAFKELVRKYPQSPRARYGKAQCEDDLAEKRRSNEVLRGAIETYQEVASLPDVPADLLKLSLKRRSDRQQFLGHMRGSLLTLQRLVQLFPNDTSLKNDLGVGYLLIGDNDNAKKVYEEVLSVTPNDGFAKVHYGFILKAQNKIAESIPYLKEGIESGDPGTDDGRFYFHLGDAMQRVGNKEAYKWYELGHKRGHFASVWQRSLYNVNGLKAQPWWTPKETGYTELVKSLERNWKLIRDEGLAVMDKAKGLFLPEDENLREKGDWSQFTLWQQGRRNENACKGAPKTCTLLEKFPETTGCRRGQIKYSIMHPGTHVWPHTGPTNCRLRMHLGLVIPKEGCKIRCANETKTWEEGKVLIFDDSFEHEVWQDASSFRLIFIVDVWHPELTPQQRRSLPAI
Protocol: as §1, §2, §3, §4, §5, §6, §7, §8, §9, §10, §11

T1 sequence (Q9NWT6 whole entry): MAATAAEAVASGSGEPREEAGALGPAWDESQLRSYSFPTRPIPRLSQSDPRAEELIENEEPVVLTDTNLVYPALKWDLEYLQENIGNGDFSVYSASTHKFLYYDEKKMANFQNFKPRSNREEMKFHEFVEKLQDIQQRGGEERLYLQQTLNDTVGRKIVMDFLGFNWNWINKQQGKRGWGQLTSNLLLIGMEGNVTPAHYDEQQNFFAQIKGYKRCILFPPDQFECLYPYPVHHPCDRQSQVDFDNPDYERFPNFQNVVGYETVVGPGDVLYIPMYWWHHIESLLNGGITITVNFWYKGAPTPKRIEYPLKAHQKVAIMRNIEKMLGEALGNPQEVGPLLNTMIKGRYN

O=C(O)CCC(=O)C(=O)O [2OG, 2-Oxoglutarate]
substrate hydroxylation (% conversion) (FIH [1]; Fig 2a, 20 μM 2OG, CA1-20, 0 min): 14.1515 and 16.7791 and 11.5447
substrate hydroxylation (% conversion) (FIH [1]; Fig 2a, 20 μM 2OG, CA1-20, 0.703167 min): 47.9481 and 47.8258 and 38.5441
substrate hydroxylation (% conversion) (FIH [1]; Fig 2a, 20 μM 2OG, CA1-20, 2.10933 min): 78.9866 and 77.8293 and 70.1307
substrate hydroxylation (% conversion) (FIH [1]; Fig 2a, 20 μM 2OG, CA1-20, 2.8135 min): 85.5974 and 84.4447 and 78.5645
substrate hydroxylation (% conversion) (FIH [1]; Fig 2a, 20 μM 2OG, CA1-20, 3.51633 min): 89.6698 and 89.0396 and 84.1833
substrate hydroxylation (% conversion) (FIH [1]; Fig 2a, 20 μM 2OG, CA1-20, 4.22 min): 92.631 and 91.777 and 88.07
substrate hydroxylation (% conversion) (FIH [1]; Fig 2a, 20 μM 2OG, CA1-20, 4.92317 min): 94.369 and 93.7454 and 90.6935
substrate hydroxylation (% conversion) (FIH [1]; Fig 2a, 20 μM 2OG, CA1-20, 5.62833 min): 95.7579 and 95.0911 and 92.7125
substrate hydroxylation (% conversion) (FIH [1]; Fig 2a, 20 μM 2OG, CA1-20, 6.33133 min): 97.057 and 96.0828 and 94.1188
substrate hydroxylation (% conversion) (FIH [1]; Fig 2a, 20 μM 2OG, CA1-20, 7.03583 min): 97.7828 and 96.6689 and 95.1866
substrate hydroxylation (% conversion) (FIH [1]; Fig 2a, 20 μM 2OG, CA1-20, 7.73917 min): 98.8257 and 97.1902 and 95.7428
substrate hydroxylation (% conversion) (FIH [1]; Fig 2a, 20 μM 2OG, CA1-20, 8.444 min): 99.4037 and 97.3768 and 96.3319
substrate hydroxylation (% conversion) (FIH [1]; Fig 2a, 20 μM 2OG, CA1-20, 9.1485 min): 99.7225 and 97.4249 and 96.6951
substrate hydroxylation (% conversion) (FIH [1]; Fig 2a, 20 μM 2OG, CA1-20, 9.853 min): 99.5637 and 97.3528 and 97.1366
substrate hydroxylation (% conversion) (FIH [1]; Fig 2a, 20 μM 2OG, CA1-20, 10.558 min): 100 and 97.2891 and 96.8671
substrate hydroxylation (% conversion) (FIH [1]; Fig 2a, 20 μM 2OG, CA1-20, 11.2623 min): 100 and 94.1661
substrate hydroxylation (% conversion) (FIH [1]; Fig 2a, 20 μM 2OG, HIF-1a788-822, 0.703167 min): 6.1581 and 8.558 and 6.1761
substrate hydroxylation (% conversion) (FIH [1]; Fig 2a, 20 μM 2OG, HIF-1a788-822, 2.10933 min): 16.8685 and 19.2149 and 14.7272
substrate hydroxylation (% conversion) (FIH [1]; Fig 2a, 20 μM 2OG, HIF-1a788-822, 2.8135 min): 22.0351 and 24.2966 and 18.9489
substrate hydroxylation (% conversion) (FIH [1]; Fig 2a, 20 μM 2OG, HIF-1a788-822, 3.51633 min): 26.9176 and 28.8009 and 23.0891
substrate hydroxylation (% conversion) (FIH [1]; Fig 2a, 20 μM 2OG, HIF-1a788-822, 4.22 min): 30.085 and 33.3713 and 26.7919
substrate hydroxylation (% conversion) (FIH [1]; Fig 2a, 20 μM 2OG, HIF-1a788-822, 4.92317 min): 34.7093 and 37.5052 and 30.4684
substrate hydroxylation (% conversion) (FIH [1]; Fig 2a, 20 μM 2OG, HIF-1a788-822, 5.62833 min): 37.941 and 41.581 and 34.0768
substrate hydroxylation (% conversion) (FIH [1]; Fig 2a, 20 μM 2OG, HIF-1a788-822, 6.33133 min): 40.9748 and 45.5421 and 37.689
substrate hydroxylation (% conversion) (FIH [1]; Fig 2a, 20 μM 2OG, HIF-1a788-822, 7.03583 min): 44.2421 and 48.7776 and 41.0727
substrate hydroxylation (% conversion) (FIH [1]; Fig 2a, 20 μM 2OG, HIF-1a788-822, 7.73917 min): 46.5287 and 52.1147 and 44.2887
substrate hydroxylation (% conversion) (FIH [1]; Fig 2a, 20 μM 2OG, HIF-1a788-822, 8.444 min): 50.2071 and 55.1688 and 46.8395
substrate hydroxylation (% conversion) (FIH [1]; Fig 2a, 20 μM 2OG, HIF-1a788-822, 9.1485 min): 52.5573 and 57.8623 and 50.003
substrate hydroxylation (% conversion) (FIH [1]; Fig 2a, 20 μM 2OG, HIF-1a788-822, 9.853 min): 55.5664 and 60.5077 and 52.8227
substrate hydroxylation (% conversion) (FIH [1]; Fig 2a, 20 μM 2OG, HIF-1a788-822, 10.558 min): 57.4116 and 62.9095 and 55.0617
substrate hydroxylation (% conversion) (FIH [1]; Fig 2a, 20 μM 2OG, HIF-1a788-822, 11.2623 min): 59.0832 and 64.3072 and 56.3348
conversion of CA1–20 (FIH [1]; Fig 2a, 20 μM 2OG, both FIH substrates in one vessel, after 5 min): > 90%
conversion of HIF-1α788–822 (FIH [1]; Fig 2a, 20 μM 2OG, both FIH substrates in one vessel, after 12 min): ~ 60%
substrate hydroxylation (% conversion) (FIH [1]; Fig 2b, 20 μM 2OG, FIH, 1.19933 min): 58.5759 and 53.8983
FIH-catalyzed CA1–20 hydroxylation (FIH [1]; Fig 2b, 20 μM 2OG, after 4 min): > 80%
FIH-catalyzed substrate turnover (FIH [1]; Fig 4a, 0.5 mM 2OG, absence of 13, after 4 min): ~ 80%
hydroxylation of CA1-20 peptide in final reaction mixture (SPE-MS) (FIH [2]; t = 10 min): > 95%
FIH-catalyzed conversion of cosubstrate to succinate / 2-methylsuccinate (1H NMR) (FIH [2]; within 5 min): ~ 70%
substrate hydroxylation (% conversion) (AspH; Fig 2b, 20 μM 2OG, 1.4395 min): 100
substrate hydroxylation (% conversion) (AspH; Fig 2b, 20 μM 2OG, 1.6805 min): 100
substrate hydroxylation (% conversion) (AspH; Fig 2b, 20 μM 2OG, 1.9205 min): 100
substrate hydroxylation (% conversion) (AspH; Fig 2b, 20 μM 2OG, 2.40217 min): 100
substrate hydroxylation (% conversion) (AspH; Fig 2b, 20 μM 2OG, 2.64367 min): 100
substrate hydroxylation (% conversion) (AspH; Fig 2b, 20 μM 2OG, 2.88417 min): 100
substrate hydroxylation (% conversion) (AspH; Fig 2b, 20 μM 2OG, 3.1255 min): 100
substrate hydroxylation (% conversion) (AspH; Fig 2b, 20 μM 2OG, 3.3665 min): 100
substrate hydroxylation (% conversion) (AspH; Fig 2b, 20 μM 2OG, 3.60917 min): 100
AspH-catalyzed hFX-EGFD1_86–124-4Ser hydroxylation (AspH; Fig 2b, 20 μM 2OG, within about 1 min): > 95%
time to apparent completion of AspH substrate hydroxylation (AspH; Fig 4a, 0.5 mM 2OG, absence of 13): ~ 1 min
AspH conversion (AspH; Supplementary Fig 8a, 20 μM 2OG, after 2 min): > 95%
